In patent US20200009118A1, “COMPOSITIONS AND METHODS FOR THE TREATMENTOF NEURODEGENERATIVE AND OTHER DISEASES” (Glialogix, Inc., priority 2017, published 2020):

What was measured:
2D2-TCR MOG (2D2) mice = test: 2D2 mouse model of optic neuritis, myelin staining of the optic nerve; assay type: in vivo; conditions: for Number of animals, average myelin content score Low / Number of animals, average myelin content score high / Number of animals, average myelin content score moderate: sulfasalazine 200 mg/kg or memantine 5 mg/kg IP BID
Text: This model serves as an inducible model of optic neuritis with a high rate of penetrance. The development of optic neuritis was monitored by animal observation and histopathology.
Female 2D2 (strain C57BL/6-Tg(Tcra2D2,Tcrb2D2)1Kuch/J) and WT mice (C57BL/6) were purchased from The Jackson Laboratory. Each cohort size was 14 animals. Mice were delivered to Ophthy-DS (Kalamazoo, Mich.) under the supervision of Renovo Neural (Cleveland, Ohio) at 8-12 weeks of age and then acclimated for an additional 4 weeks before beginning the experiment. Animals were housed in pathogen-free, individually-ventilated, enriched cages on a 12 h:12 h light:dark cycle with food and water ad libitum. Mice were monitored daily for welfare and symptoms of optic neuritis.
After 4 weeks of acclimation, animals were randomized by weight into 4 groups of 14 animals each. To induce optic neuritis, 200 ng of Pertussis toxin was injected into the 2D2 animals on days 1 and 3 as described by Guan et al. Dosing of vehicle or treatment compounds began at day 1. The four cohorts are: • (1) WT mice (C57BL/6) treated with vehicle (200 μl saline IP, BID). This cohort serves as a control for the readouts of optic neuritis disease. • (2) 2D2 mice vehicle treated with vehicle (200 μl saline IP, BID). […] The memantine-treated group served as a control for anti-glutamatergic therapy in the 2D2 model of optic neuritis.
On day 30, animals were euthanized and perfused. Optic nerves and retinas were dissected out and embedded in paraffin and sections mounted on slides. 5-7 sections of the optic nerve (from one eye) from ten animals in each cohort were stained by Toluidine Blue. Histopathological analysis of the slides and quantitation of the myelin staining intensity was performed blinded by a board-certified pathologist, Dr. Igor Polyakov (Minneapolis, Minn.). Staining intensity of each slide was graded as either low, moderate or high. Both peripheral and central sections of the optic nerve were graded. The intensity of the myelin staining between the cohorts on a per section and a per animal basis was compared using chi-square and Fishers' exact test with a p<0.05 considered significant.
On a per animal basis, this yielded 20 scores per cohort: average score per section×2 scores per animal (peripheral or central)×10 animals per cohort. On a per section basis, this yielded approximately 110 score per cohort: score per section×5-7 sections per animal×2 scores per section (peripheral or central)×10 animals per cohort.

[1] = 2 g oral dose, people with ABCG2 genotype 421C/C; cited from earlier work
xCT = biological target: T1, xCT (Rattus norvegicus, UniProt A0A8I6AB70); test: Extracellular glutamate from primary astrocytes (Amplex Red Glutamic Acid/Glutamate Oxidase Assay); assay type: cell-based; conditions: sulfasalazine 50 μM in minimal media after TNF-alpha 100 μg/ml
T1 construct: host or cells: primary rat astrocytes
T1 sequence (A0A8I6AB70 1-502): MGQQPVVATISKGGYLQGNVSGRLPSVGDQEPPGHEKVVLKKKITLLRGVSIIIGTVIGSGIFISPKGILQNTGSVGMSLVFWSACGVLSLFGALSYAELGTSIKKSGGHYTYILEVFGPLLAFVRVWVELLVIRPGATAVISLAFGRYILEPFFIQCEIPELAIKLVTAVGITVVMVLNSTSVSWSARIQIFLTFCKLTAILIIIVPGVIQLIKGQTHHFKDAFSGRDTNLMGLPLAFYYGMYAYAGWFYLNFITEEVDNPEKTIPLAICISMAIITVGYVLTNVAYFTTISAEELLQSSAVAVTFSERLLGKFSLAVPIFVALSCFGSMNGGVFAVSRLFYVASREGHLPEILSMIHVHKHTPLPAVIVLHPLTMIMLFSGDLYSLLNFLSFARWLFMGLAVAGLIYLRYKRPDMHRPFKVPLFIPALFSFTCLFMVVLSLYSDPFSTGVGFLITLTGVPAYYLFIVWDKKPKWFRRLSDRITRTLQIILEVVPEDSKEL
T1 sequence (Q794F9 whole entry partner): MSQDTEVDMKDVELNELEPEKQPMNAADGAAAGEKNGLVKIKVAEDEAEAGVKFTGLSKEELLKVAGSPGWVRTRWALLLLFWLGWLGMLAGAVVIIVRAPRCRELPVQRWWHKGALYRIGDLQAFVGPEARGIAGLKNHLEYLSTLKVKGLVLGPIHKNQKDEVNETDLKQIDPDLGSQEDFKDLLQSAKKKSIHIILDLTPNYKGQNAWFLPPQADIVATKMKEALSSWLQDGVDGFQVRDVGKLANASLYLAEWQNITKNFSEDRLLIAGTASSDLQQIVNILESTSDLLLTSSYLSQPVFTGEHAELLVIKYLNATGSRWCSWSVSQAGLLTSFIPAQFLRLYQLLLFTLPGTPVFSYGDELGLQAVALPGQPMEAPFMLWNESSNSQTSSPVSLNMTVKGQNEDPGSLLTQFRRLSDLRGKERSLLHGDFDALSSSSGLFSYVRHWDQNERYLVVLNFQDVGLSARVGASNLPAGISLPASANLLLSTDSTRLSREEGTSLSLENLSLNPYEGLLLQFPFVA
Text: xCT is a cystine-glutamate exchange protein that imports extracellular cystine in exchange for exporting intracellular glutamate. xCT activity can be measured by measuring the level of the extracellular glutamate that is exported. For detection of extracellular glutamate, the Amplex Red Glutamic Acid/Glutamate Oxidase Assay Kit from Life Technologies (Catalog #A-1222, Grand Island, N.Y.) was used following the manufacturer's instructions. Fluorescence from the Amplex Red fluorophore is directly proportional to glutamate concentration and was detected on an Enspire plate reader (Perkin-Elmer (Model #2300, Santa Clara, Calif.) with excitation wavelength at 530 nm and detection wavelength at 590 nm according to the manufacturer's instructions.
Astrocytes were grown in 24-well microtiter plates at a density of approximately 10,000 cells/well in a total volume of 400 μl of astrocyte media. Cells were incubated 18 hours in either astrocyte media plus 100 μM cystine (Catalog #C8755; Sigma-Aldrich) or astrocyte media plus 100 μM cystine plus TNF-alpha (100 μg/ml). After 18 hours, the media was removed and the adherent astrocytes washed twice with PBS and then 400 μL of minimal media was added to the cells. The minimal media was EBSS (catalog #E3024, Sigma-Aldrich) supplemented with 100 μM cystine and 10 mM D-glucose (catalog #G8769, Sigma-Aldrich).
The top 25 μL of the supernatant was then transferred to a 0.5 ml microfuge tube and the aliquots frozen at −80.
For the glutamate assay, samples of the media were thawed, pipetted up and down to ensure mixing and 20 μl added to 80 μl of the Amplex Red assay mix in a 96-well microtiter plate (catalog #M4436, Greiner, Frickenhausen, Germany). The reactions were covered in aluminum foil and allowed to proceed for 30 minutes at 37° C. and then fluorescence measured as described above.
Concurrently with analysis of the astrocyte samples, a standard curve of the Amplex Red glutamate assay in the minimal media was prepared following the manufacturer's instructions and using known concentrations of glutamate: 0, 0.5, 1, 2 and 4 μM. Table 19 gives the numerical results of the standard curve assay and the results are depicted graphically in FIG. 17.

[2] = Total (central + peripheral, 20 scores), day 30
[3] = per section basis, Central Region, day 30
[4] = per section basis, Peripheral Region, day 30
[5] = per section basis, Total, day 30

O=C(O)c1cc(/N=N/c2ccc(S(=O)(=O)Nc3ccccn3)cc2)ccc1O [Sulfasalazine, 2-hydroxy-5-[(E)-2-{4-[(pyridin-2-yl)sulfamoyl]phenyl}diazen-1-yl]benzoic acid]
Number of animals, average myelin content score Low (2D2-TCR MOG (2D2) mice; Central Region, day 30): 0 | Number of animals, average myelin content score high (2D2-TCR MOG (2D2) mice; Central Region, day 30): 4 | Number of animals, average myelin content score moderate (2D2-TCR MOG (2D2) mice; Central Region, day 30): 6 | Number of animals, average myelin content score Low (2D2-TCR MOG (2D2) mice; Peripheral Region, day 30): 1 | Number of animals, average myelin content score high (2D2-TCR MOG (2D2) mice; Peripheral Region, day 30): 4 | Number of animals, average myelin content score moderate (2D2-TCR MOG (2D2) mice; Peripheral Region, day 30): 5 | Number of animal scores, myelin content High (2D2-TCR MOG (2D2) mice; [2]): 8 | Number of animal scores, myelin content Low (2D2-TCR MOG (2D2) mice; [2]): 1 | Number of animal scores, myelin content Moderate (2D2-TCR MOG (2D2) mice; [2]): 11 | myelin content compared to the vehicle-treated 2D2 animals (2D2-TCR MOG (2D2) mice; optic nerve, day 30): highly significant increase in myelin content | Number of sections, myelin content Low (2D2-TCR MOG (2D2) mice; [3]): 0 | Number of sections, myelin content high (2D2-TCR MOG (2D2) mice; [3]): 19 | Number of sections, myelin content moderate (2D2-TCR MOG (2D2) mice; [3]): 38 | Number of sections, myelin content Low (2D2-TCR MOG (2D2) mice; [4]): 8 | Number of sections, myelin content high (2D2-TCR MOG (2D2) mice; [4]): 21 | Number of sections, myelin content moderate (2D2-TCR MOG (2D2) mice; [4]): 28 | Number of section scores, myelin content High (2D2-TCR MOG (2D2) mice; [5]): 40 | Number of section scores, myelin content Low (2D2-TCR MOG (2D2) mice; [5]): 8 | Number of section scores, myelin content Moderate (2D2-TCR MOG (2D2) mice; [5]): 66 | Percent scores, Myelin content-Total High (2D2-TCR MOG (2D2) mice; per-animal basis): 40% | Percent scores, Myelin content-Total Low (2D2-TCR MOG (2D2) mice; per-animal basis): 5% | Percent scores, Myelin content-Total Moderate (2D2-TCR MOG (2D2) mice; per-animal basis): 55% | Percent scores, Myelin content-Total High (2D2-TCR MOG (2D2) mice; per-section basis): 35% | Percent scores, Myelin content-Total Low (2D2-TCR MOG (2D2) mice; per-section basis): 7% | Percent scores, Myelin content-Total Moderate (2D2-TCR MOG (2D2) mice; per-section basis): 58% | time plasma levels above 10 μg/ml were maintained [1]: approximately 7 hours | Calculated glutamate levels (xCT; 30 minutes): 0.25 µM | Fluorescence units (xCT; 30 minutes): 4467 | Calculated glutamate levels (xCT; 120 minutes): 0.17 µM | Fluorescence units (xCT; 120 minutes): 4199 | Calculated glutamate levels (xCT; 240 minutes): 0.27 µM | Fluorescence units (xCT; 240 minutes): 4525
